Laboratory results reported in ChEMBL document CHEMBL1132912, “Cytotoxic alpha-bromoacrylic derivatives of distamycin analogues modified at the amidino moiety” (Bioorg Med Chem Lett, 2000).

Tests used:
Type in all cases: functional
[1] = system: Mus musculus; experiment: In vivo antileukemic activity was determined on L1210 leukemia cell in mice (O.D.=optimal (non-toxic) dose <LD10)
[2] = system: Mus musculus; experiment: In vivo antileukemic activity was determined in mice infected with L1210 leukemia cell after intravenous of treated versus untreated mice 10)
[3] = system: Mus musculus; experiment: In vivo antileukemic activity was determined in mice infected with L1210 leukemia cell after intravenous administration (T/C=median survival time of treated versus untreated mice 10)

Row | Structure (SMILES) | OD [1] | T/C [2] | T/C [3]
1 | C=C(Br)C(=O)Nc1cc(C(=O)Nc2cc(C(=O)Nc3cc(C(=O)Nc4cc(C(=O)NCC/C(=N/C)NC)n(C)c4)n(C)c3)n(C)c2)n(C)c1.Cl | 1.56 mg/kg | 258% | –
2 | C=C(Br)C(=O)Nc1cc(C(=O)Nc2cc(C(=O)Nc3cc(C(=O)Nc4cc(C(=O)NCCC(=N)NO)n(C)c4)n(C)c3)n(C)c2)n(C)c1.Cl | 6.25 mg/kg | 186% | –
3 | C=C(Br)C(=O)Nc1cc(C(=O)Nc2cc(C(=O)Nc3cc(C(=O)Nc4cc(C(=O)NCCC(=N)NC)n(C)c4)n(C)c3)n(C)c2)n(C)c1.Cl | 3.13 mg/kg | 150% | –
4 | C=C(Br)C(=O)Nc1cc(C(=O)Nc2cc(C(=O)Nc3cc(C(=O)Nc4cc(C(=O)NCCC#N)n(C)c4)n(C)c3)n(C)c2)n(C)c1.Cl | 12.5 mg/kg | – | 157%
5 | C=C(Br)C(=O)Nc1cc(C(=O)Nc2cc(C(=O)Nc3cc(C(=O)Nc4cc(C(=O)NCCC(=N)NC#N)n(C)c4)n(C)c3)n(C)c2)n(C)c1.Cl | 3.13 mg/kg | 157% | –
6 | C=C(Br)C(=O)Nc1cc(C(=O)Nc2cc(C(=O)Nc3cc(C(=O)Nc4cc(C(=O)NCCC(N)=O)n(C)c4)n(C)c3)n(C)c2)n(C)c1.Cl | 6.25 mg/kg | 169% | –
7 | C=C(Br)C(=O)Nc1cc(C(=O)Nc2cc(C(=O)Nc3cc(C(=O)Nc4cc(C(=O)NCCN=C(N)N)n(C)c4)n(C)c3)n(C)c2)n(C)c1.Cl | 1.56 mg/kg | 196% | –
